Laboratory results: patent publication US12728119B2, “Pharmaceutical composition for preventing or treating cancer comprising 3-ketoacyl CoA thiolase inhibitor and carnitine acylcarnitine carrier inhibitor” (NATIONAL CANCER CENTER, priority 2020, dated 2026)

Legend:
Format in all cases: cell-based
[1] = tested on: H1975 non-small cell lung cancer (NSCLC) cell line; assay: SRB analysis 3; conditions: 48 hours
How it was run: (§1)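 n=3 SRB growth assay, 48 h drug exposure at 37° C. Combination: omeprazole + trimetazidine + additional anticancer drug. Endpoints GI50, TGI, LC50.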

[2] = tested on: MIA PaCa-2 pancreatic cancer (PDAC) cell line; assay: SRB analysis 3; conditions: 48 hours
How it was run: as §1

[3] = tested on: PC-3 prostate cancer cell line; assay: SRB analysis 3; conditions: 48 hours
How it was run: as §1

[4] = tested on: COLO-205 colon cancer cell line; assay: SRB analysis 3; conditions: 48 hours
How it was run: as §1

[5] = tested on: OVCAR-8 ovarian cancer cell line; assay: SRB analysis 3; conditions: 48 hours
How it was run: as §1

[6] = tested on: SK-hep-1 liver cancer cell line; assay: SRB analysis 3; conditions: 48 hours
How it was run: as §1

[7] = tested on: SK-OV-3 ovarian cancer cell line; assay: SRB analysis 3; conditions: 48 hours
How it was run: as §1

[8] = tested on: MDA-MB-231 breast cancer cell line; assay: SRB analysis 3; conditions: 48 hours
How it was run: as §1

[9] = tested on: AGS gastric cancer cell line; assay: SRB analysis 3; conditions: 48 hours
How it was run: as §1

[10] = tested on: MKN45 gastric cancer cell line; assay: SRB analysis 3; conditions: MKN45, 48 hours
How it was run: as §1

[11] = tested on: Caki-1 renal cancer cell line; assay: SRB analysis 3; conditions: 48 hours
How it was run: as §1

[12] = tested on: AsPC-1 pancreatic cancer (PDAC) cell line; assay: SRB analysis 3; conditions: 48 hours
How it was run: as §1

A375 melanoma cell line = assay: SRB analysis 3; conditions: 48 hours
How it was run: as §1

[13] = tested on: Panc-1 pancreatic cancer cells; assay: SRB analysis 2; conditions: 48 hours
[14] = tested on: SW1990 pancreatic cancer cells; assay: SRB analysis 2; conditions: 48 hours
[15] = tested on: T87G glioblastoma (GBM) cell line; assay: SRB analysis 3; conditions: 48 hours
Procedure: (§2) Through SRB analysis (n=3), the effect of triple combination treatment of a CAC inhibitor ([…] inhibitor (KN713: trimetazidine) and other anticancer drug on cell growth in the cancer cells was analyzed. (see Table 11). The SRB assay was performed as follows: each cell line (100 μl) was seeded into 96-well microtiter plates at densities ranging from 5,000 to 40,000 cells/well depending on the doubling time of each cell line. After 24 hours, drug (100 μl per well) was added to each well and the culture was incubated at 37° C. for 48 hours. Cells were then fixed in 50% TCA (50 μl per well) and plates were incubated at 4° C. for a minimum of 1 hour or a maximum of 3 hours. After that, the liquid was removed from the plate, then rinsed 5 times with water and dried for approximately 12-24 hours at room temperature (RT). After the fixed cells were stained with 0.4% SRB (100 μl per well) for 10 minutes at room temperature, the plates were washed 3 times with 1% glacial acetic acid and dried at room temperature for about 12-24 hours. SRB staining was dissolved in 10 mM Trizma base and absorbance was read at 515 nm.

[16] = tested on: U87MG glioblastoma (GBM) cell line; assay: SRB analysis 3; conditions: 48 hours
Procedure: as §2

SMILES: COc1ccc2[nH]c([S+]([O-])Cc3ncc(C)c(OC)c3C)nc2c1 (stereo not shown) [KN510, omeprazole]
- cell growth (Control = 100) ([1]; KN510 100 μM): 84.1319
- cell growth (Control = 100) ([2]; KN510 100 μM): 65.94
- cell growth (Control = 100) ([3]; KN510 100 μM): 59.63
- cell growth (Control = 100) ([4]; KN510 100 μM): 78.03
- cell growth (Control = 100) ([5]; KN510 100 μM): 68.75
- cell growth (Control = 100) ([6]; KN510 100 μM): 60.38
- cell growth (Control = 100) ([7]; KN510 100 μM): 85.06
- cell growth (Control = 100) ([8]; KN510 100 μM): 86.99
- cell growth (Control = 100) ([9]; KN510 100 μM): 65.05
- cell growth (Control = 100) ([10]; KN510 100 μM): 62.39
- cell growth (Control = 100) ([11]; KN510 100 μM): 102.1283
- cell growth (Control = 100) ([12]; KN510 100 μM): 65.83
- cell growth (Control = 100) (A375 melanoma cell line; KN510 100 μM): 79.18
- degree of cell growth based on the control (100%) ([13]; KN510 100 μM): 63.06%
- degree of cell growth based on the control (100%) ([13]; KN510 200 μM): 19.45%
- degree of cell growth based on the control (100%) ([14]; KN510 100 μM): 90.16%
- degree of cell growth based on the control (100%) ([14]; KN510 200 μM): 63.83%
- cell growth (Control = 100) ([15]; KN510 100 μM): 67.87
- cell growth (Control = 100) ([16]; KN510 100 μM): 84.15

SMILES: COc1ccc(CN2CCNCC2)c(OC)c1OC [KN713, trimetazidine]
- cell growth (Control = 100) ([1]; KN713 2.5 mM): 62.58
- cell growth (Control = 100) ([2]; KN713 2.5 mM): 39.45
- cell growth (Control = 100) ([3]; KN713 2.5 mM): 45.06
- cell growth (Control = 100) ([4]; KN713 2.5 mM): 31.62
- cell growth (Control = 100) ([5]; KN713 2.5 mM): 72.86
- cell growth (Control = 100) ([6]; KN713 2.5 mM): 157.7818
- cell growth (Control = 100) ([7]; KN713 2.5 mM): 83.37
- cell growth (Control = 100) ([8]; KN713 2.5 mM): 74.5469
- cell growth (Control = 100) ([9]; KN713 2.5 mM): 60.34
- cell growth (Control = 100) ([10]; KN713 2.5 mM): 72.85
- cell growth (Control = 100) ([11]; KN713 2.5 mM): 47.58
- cell growth (Control = 100) ([12]; KN713 2.5 mM): 58.71
- cell growth (Control = 100) (A375 melanoma cell line; KN713 2.5 mM): 70.33
- cell growth (Control = 100) ([15]; KN713 2.5 mM): 59.89
- cell growth (Control = 100) ([16]; KN713 2.5 mM): 66.40
